Assay: Measurement of porosity (KOPTRI)
Type: physicochemical
Procedure: The porosity measurement was performed by the Korea Polymer Testing & Research Institute (KOPTRI), an accredited international testing agency, by requesting the samples prepared by the present applicant.

Work on `O=P1(N(CCCl)CCCl)NCCCO1` (stereo not drawn) [Comparison 2, 2-[bis(2-chloroethyl)amino]tetrahydro-2H-1,3,2-oxazaphosphorin-2-oxide] yielded an Apparent density of 1.31 g/mL, a Porosity of 5.24% and an Average diameter (pore size) of 0.02 μm.
